Like-named read-outs stand apart in the source and are kept apart here.
Tests used:
[1] = Binding to steroid hormone by UV spectroscopy
Description: (§1) UV spectroscopy in a crystal plate was used to investigate whether CAP has specificity for estrogen alone or whether it can bind to other naturally occurring hormones. To start, CAP was dissolved in a 1:1 solution of water to ethanol at 1 mg/mL ( 3.27×10^−3 M ) and then diluted by thirds eight times. Next, the hormones were dissolved in a 1:1 solution of water to ethanol at a 1/100 dilution. An amount of 50 μL of each CAP dilution was added to 3 wells of a crystal plate, with one well serving as the control, with another 50 μL of 1:1 water to ethanol added, and the other two serving as experimental duplicates, with 50 μL of the prepared hormone solution added. Then, two additional wells were prepared to serve as controls: one containing 100 μL of 1:1 water to ethanol and the other containing 50 μL of prepared hormone solution and 50 μL of 1:1 water to ethanol. Finally, the plate was incubated for 1 h and read in a Spectramax UV-VIS scanning spectrophotometer, spanning wavelengths from 190 to 400 nm. Data analysis involved the subtraction of observed absorbance values from expected absorbance values generated from the control wells ([CAP + 1:1 solution] + [hormone + 1:1 solution] − [1:1 solution]) and plotting them as a function of CAP concentration. Because the solvent (1:1 solution of water–ethanol) was used as a control and subtracted from all wells, the resulting data reflected only the absorbances of the solute compounds. Since each compound has a different lambda maximal absorbance, analysis of the resulting data required finding one common wavelength at which the additions and subtractions of the spectra could be carried out and at which the absorbance of each compound was maximized.
Experiments were also performed to test whether the enhancement or antagonism observed in estradiol binding to the ESR1 might be due to vanilloid compounds binding directly to estradiol or to related steroidal hormones, perhaps protecting them from oxidation or forming a complex that prevented the estradiol binding to its receptor. No vanilloid compound bound to a measurable degree to estradiol or any other steroidal hormone tested.

[2] = target: insulin (human recombinant) (Homo sapiens, UniProt P01308); assay: Binding to insulin by ultraviolet spectroscopy; details: UV spectroscopy
Chain of insulin (human recombinant) (P01308 25-54 limits assumed): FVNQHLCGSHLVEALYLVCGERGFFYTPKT
Chain of insulin (human recombinant) (P01308 90-110 limits assumed): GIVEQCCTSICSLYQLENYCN

[3] = target: insulin receptor (IR) (Homo sapiens, UniProt P06213); assay: Binding to the insulin receptor by ultraviolet spectroscopy; details: UV spectroscopy
Chain of insulin receptor (IR) (P06213 28-1382, species assumed): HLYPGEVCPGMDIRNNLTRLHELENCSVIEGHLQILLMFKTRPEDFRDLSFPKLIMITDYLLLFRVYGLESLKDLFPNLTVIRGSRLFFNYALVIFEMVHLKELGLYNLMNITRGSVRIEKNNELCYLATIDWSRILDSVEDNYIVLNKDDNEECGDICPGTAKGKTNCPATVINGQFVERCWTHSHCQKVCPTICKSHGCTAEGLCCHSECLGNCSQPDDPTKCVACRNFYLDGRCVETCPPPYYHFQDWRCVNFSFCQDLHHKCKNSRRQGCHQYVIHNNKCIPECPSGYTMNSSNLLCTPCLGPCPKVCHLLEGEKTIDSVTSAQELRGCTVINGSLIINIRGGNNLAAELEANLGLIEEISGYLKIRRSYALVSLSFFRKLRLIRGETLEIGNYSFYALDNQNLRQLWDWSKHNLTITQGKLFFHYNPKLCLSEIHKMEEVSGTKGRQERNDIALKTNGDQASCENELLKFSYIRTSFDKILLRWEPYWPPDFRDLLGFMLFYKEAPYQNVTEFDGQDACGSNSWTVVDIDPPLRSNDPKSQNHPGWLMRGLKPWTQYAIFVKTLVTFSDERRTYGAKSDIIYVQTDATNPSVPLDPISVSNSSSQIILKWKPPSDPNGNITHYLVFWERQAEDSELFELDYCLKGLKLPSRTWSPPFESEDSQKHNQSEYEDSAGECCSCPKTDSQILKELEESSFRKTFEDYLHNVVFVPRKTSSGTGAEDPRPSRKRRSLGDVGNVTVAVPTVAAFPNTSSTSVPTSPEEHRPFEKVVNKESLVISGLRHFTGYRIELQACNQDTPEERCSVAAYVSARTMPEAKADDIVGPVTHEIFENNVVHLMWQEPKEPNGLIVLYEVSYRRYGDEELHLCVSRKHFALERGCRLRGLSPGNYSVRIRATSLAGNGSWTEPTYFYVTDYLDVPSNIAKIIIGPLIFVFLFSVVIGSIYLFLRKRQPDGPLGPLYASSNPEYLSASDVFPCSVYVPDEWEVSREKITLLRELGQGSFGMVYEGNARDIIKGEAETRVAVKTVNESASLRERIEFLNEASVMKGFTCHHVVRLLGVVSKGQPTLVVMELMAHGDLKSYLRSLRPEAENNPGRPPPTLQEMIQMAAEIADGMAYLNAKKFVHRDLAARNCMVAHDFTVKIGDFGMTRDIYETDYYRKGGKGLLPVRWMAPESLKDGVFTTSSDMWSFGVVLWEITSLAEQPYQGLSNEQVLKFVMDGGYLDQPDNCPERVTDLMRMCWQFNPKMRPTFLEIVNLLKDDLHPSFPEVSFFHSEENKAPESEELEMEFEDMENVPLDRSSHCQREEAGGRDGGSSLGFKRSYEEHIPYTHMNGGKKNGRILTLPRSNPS
Description: as §1
[17, 19, 20, 21, 22, 23]. […] Because CAP binds to INS, it was possible that it might antagonize INS binding to its receptor. […] Two types of ultraviolet spectroscopy experiments were performed. In one, INS (1 µM) and the IR were kept constant and the concentration of CAP increased from 0.1 µM to 100 µM. In the other, the CAP (25 µM) and IR were kept constant and the concentration of INS increased from 10 nM to 10 µM. In neither experiment was any significant change in the INS binding curve observed.
CAP did bind to the ESR1 with what appears to be a high affinity (Kd = 0.9 µM) and a lower affinity (Kd = 10 µM) site. […] Other vanilloid compounds also bound to the ESR1 but with lower affinity than CAP (Figure 6). None bound to the IR.

[4] = target: T1, ESR1 (Homo sapiens, UniProt P03372); assay: Competitive-binding ELISA of EST-HRP binding to the estrogen receptor
T1 construct: purchased Invitrogen-Thermofisher
T1 sequence (P03372 1-595): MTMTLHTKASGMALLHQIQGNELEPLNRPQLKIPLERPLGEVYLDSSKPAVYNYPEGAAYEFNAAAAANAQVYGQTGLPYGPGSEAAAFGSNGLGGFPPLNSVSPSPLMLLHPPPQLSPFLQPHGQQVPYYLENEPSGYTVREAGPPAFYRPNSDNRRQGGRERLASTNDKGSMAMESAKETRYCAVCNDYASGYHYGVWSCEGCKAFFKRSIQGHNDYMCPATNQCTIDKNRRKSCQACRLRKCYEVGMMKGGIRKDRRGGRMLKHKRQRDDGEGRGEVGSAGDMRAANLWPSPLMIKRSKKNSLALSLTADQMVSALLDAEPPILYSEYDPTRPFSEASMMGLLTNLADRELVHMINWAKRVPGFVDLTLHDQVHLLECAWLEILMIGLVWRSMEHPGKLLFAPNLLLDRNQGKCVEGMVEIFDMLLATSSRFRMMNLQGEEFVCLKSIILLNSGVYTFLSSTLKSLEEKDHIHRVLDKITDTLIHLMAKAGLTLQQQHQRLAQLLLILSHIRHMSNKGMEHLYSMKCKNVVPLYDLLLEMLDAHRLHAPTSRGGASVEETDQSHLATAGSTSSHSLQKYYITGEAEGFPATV

[5] = target: T2, Estrogen receptor alpha (ER alpha) recombinant protein (ESR1) (Homo sapiens, UniProt P03372); assay: Binding to the estrogen receptor by ultraviolet spectroscopy; details: UV spectroscopy; listed as vanillin
T2 sequence (P03372 1-595): T1 sequence (P03372 1-595)

| Compound | Binding (Kd) 4-Androstene-3,17-dione [1] | Binding (Kd) 5-Pregnan-3β-OL-2O-one [1] | Binding (Kd) Estradiol [1] | Binding (Kd) Estriol [1] | Binding (Kd) Progesterone [1] | Binding (Kd) Estradiol ([1]; listed as acetaminophen) | binding to insulin (in words) [2] | Binding (Kd) Estradiol ([1]; listed as vanillic acid) | Kd ([2]; Binding (Kd) Insulin, Table 1) [µM] | binding to the insulin receptor (in words) [3] | effect on estradiol (EST-HRP) binding to the estrogen receptor [4] | effect on estradiol (EST-HRP) binding to the estrogen receptor ([4]; listed as VAN) | Binding (Kd) Estradiol ([1]; listed as vanillin) | binding to insulin (in words) ([2]; listed as vanillin) | binding to the estrogen receptor (in words) [5] |
| --- | --- | --- | --- | --- | --- | --- | --- | --- | --- | --- | --- | --- | --- | --- | --- |
| CC(=O)Nc1ccc(O)cc1 [Acetaminophen, acetaminophen] | No binding | No binding | No binding | No binding | No binding | did not bind directly to estradiol | Neither vanillin nor acetaminophen bound significantly to insulin | – | – | – | – | – | – | – | – |
| COc1cc(C(=O)O)ccc1O [Van Acid, vanillic acid] | No binding | No binding | No binding | No binding | No binding | – | bound almost as well as capsaicin | did not bind directly to estradiol | 4 | – | – | – | – | – | – |
| COc1cc(C=O)ccc1O [Vanillin, vanillin] | No binding | No binding | No binding | No binding | No binding | – | – | – | – | did not bind significantly | no effect on estradiol binding | no significant effect on estradiol binding | did not bind directly to estradiol | Neither vanillin nor acetaminophen bound significantly to insulin | weakly to the estrogen receptor |
| C[C@]12CC[C@@H]3c4ccc(O)cc4CC[C@H]3[C@@H]1CC[C@@H]2O [estradiol] | – | – | – | – | – | – | – | – | – | did not bind to the IR | – | – | – | – | – |
